# Experimental data taken from PubChem BioAssay AID463206 (Broad Institute, 2010).
# Active and inactive are the calls of the source.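 Rule for the calls: active = caspase luminescence falls with dose and the half-maximal concentration AC50 from the fitted curve is at or below a set limit; inconclusive = flat fit at 30 to 70% signal loss, or invalid fit; inactive = AC50 above the limit, or signal rises instead.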
# Test system: INS-1E cytokine-induced caspase-3/7, Caspase-Glo luminescence, 48 h
# Assay: inhibitors of cytokine-induced caspase-3/7 activity, dose response, orthogonal assay for beta-cell apoptosis protection project, INS-1E rat cells, luminescence (AID 463206)
row,SMILES,AC50
1,COc1ccc(C2=Nn3c([n+](C)c4ccccc43)SC2)cc1,> 26 µM (inactive)
2,Nc1nc(F)nc2c1ncn2[C@@H]1O[C@H](CO)[C@@H](O)[C@H]1O,> 26 µM (inactive)
3,CCSCCc1nnc(NC(=O)Nc2cccc(C(F)(F)F)c2)s1,> 26 µM (inactive)
4,Cc1ccc(-c2nc(NC(=O)c3nn(C)cc3[N+](=O)[O-])sc2C)cc1C,> 26 µM (inactive)
5,O=[N+]([O-])c1cc(CN2CCN(c3ccccc3)CC2)c(O)c2ncccc12,> 26 µM (inactive)
6,O=C(Nc1cccnc1)c1ccc([N+](=O)[O-])s1,> 26 µM (inactive)
7,COc1ccc(Cn2c(SCc3cc(C)ccc3C)nc3cc(OC)c(OC)cc3c2=N)cc1,> 26 µM (inactive)
8,CCCOc1ccc(C(=O)C(CN2CCOCC2)c2ccccc2)cc1 (stereo not drawn),> 12 µM (inactive)
9,Cc1[nH]n(-c2ccccc2)c(=O)c1N=Nc1c(O)cc(S(=O)(=O)N(C)C)c2ccccc12,> 26 µM (inactive)
10,CC(=O)c1c(C)[nH]c(C(=O)CN2CCN(S(=O)(=O)c3ccccc3)CC2)c1C,> 26 µM (inactive)
11,CC(Sc1nnc2c(n1)[nH]c1ccccc12)C(=O)N(C)C1CCCCC1 (stereo not drawn),> 12 µM (inactive)
12,COc1cccc(/C=N/NC(=O)c2ccoc2C)c1O,> 26 µM (inactive)
13,COc1ccccc1/C=N/OCc1cc(C(C)=O)ccc1OC,> 26 µM (inactive)
14,Cc1ccc(NC(=O)C2CCN(S(=O)(=O)c3ccc(N4CCCC4=O)cc3)CC2)cc1Cl,> 26 µM (inactive)
15,Cc1nc2ccccc2c(=O)n1/N=C/c1c(O)ccc2ccccc12,> 26 µM (inactive)
16,COc1ccc(C2CC(c3ccc4ccccc4c3OC(C)=O)=NN2C(C)=O)cc1 (stereo not drawn),> 26 µM (inactive)
17,CCOC(=O)c1[nH]cnc1N=Nc1c(O)ccc2ccccc12,> 26 µM (inactive)
18,Cc1ccc2nc(-c3ccc(-c4cccc(Cl)c4)cc3)c(NCc3ccccc3)n2c1,> 26 µM (inactive)
19,CC[C@]1(c2ccccc2OC)ON(c2ccccc2C(F)(F)F)C1=O,> 26 µM (inactive)
20,COc1ccc(-n2c(-c3ccc(Cl)cc3)c[n+]3c2CCCCC3)cc1,> 26 µM (inactive)
21,CCCCCCSc1cccc(-c2nc3ccccn3c2NCc2ccccc2)c1,> 26 µM (inactive)
22,CCn1cc(/C=C/c2cc[n+](C)cc2)c2ccccc21,> 26 µM (inactive)
23,O=C(N/N=C/c1ccc([N+](=O)[O-])s1)C(O)c1ccccc1 (stereo not drawn),> 26 µM (inactive)

row,SMILES,AC50
1,O=S(=O)(c1ccc2c(c1)OCCO2)N1CCN(c2ncnc3sccc23)CC1,> 26 µM (inactive)
2,Cc1ccc(-c2nn(-c3ccccc3)cc2/C=C/C(=O)Nc2cccc(S(N)(=O)=O)c2)cc1,> 26 µM (inactive)
3,COc1cccc(-c2nc(-c3ccc(NC(=O)c4cccnc4)cc3)no2)c1,> 26 µM (inactive)
4,Oc1c(CN2CCN(c3ccc(F)cc3)CC2)cc(Cl)c2cccnc12,> 26 µM (inactive)
5,CCOc1ccc2nc(NC(=O)c3ccccn3)sc2c1,> 26 µM (inactive)
6,Cc1ccc(C(C)C)c(OCc2nn(CC(=O)c3ccc(OC(F)F)cc3)c3[n+]2CCCCC3)c1,> 26 µM (inactive)
7,COC(=O)[C@H](CC(C)C)N(Cc1ccccc1)S(=O)(=O)N(Cc1ccccc1)[C@@H](CC(C)C)C(=O)OC,> 26 µM (inactive)
8,Cc1ccc(C(=O)NC2CCCc3c2cnn3-c2ccc(F)cc2F)cn1 (stereo not drawn),> 26 µM (inactive)
9,Cc1cc(=O)[nH]c(N/N=C/c2ccccn2)n1,> 26 µM (inactive)
10,CCn1c(-c2ccc(N(C)C)cc2)nc2ccccc21,> 26 µM (inactive)
11,CC1(C)N=C(N)N=C(N)N1c1ccc(OCCCOc2ccccc2)c(Cl)c1,> 26 µM (inactive)
12,CC(=O)Nc1sc2c(c1-c1nc3ccccc3s1)CN(C(C)C)CC2,> 26 µM (inactive)
13,Oc1ccc(CN2CCCc3ccccc32)c2cccnc12,> 26 µM (inactive)
14,Cc1cc(C)cc(Oc2cc(NC(=O)c3cn(C)nc3C)cc([N+](=O)[O-])c2)c1,> 26 µM (inactive)
15,C(=N\Nc1ncnc2sc3c(c12)CCC3)/c1cccs1,> 26 µM (inactive)
16,COc1ccc(-c2sc3ccccc3c2-c2ccc(OCCN3CCCCC3)cc2)cc1,> 26 µM (inactive)
17,C=C(C)C(=O)OCC(O)COc1ccc(C(C)(C)c2ccc(OCC(O)COC(=O)C(=C)C)cc2)cc1 (stereo not drawn),> 26 µM (inactive)
18,CCC(=O)NC(c1cc(Cl)c2cccnc2c1O)C(C)C (stereo not drawn),> 26 µM (inactive)
19,N=c1c2c(n(Cc3ccc(Cl)cc3Cl)c3c1CCC3)CCCC2,> 26 µM (inactive)
20,Cc1ccc(O)c(N=Nc2nccs2)c1,> 26 µM (inactive)
21,O=C(Nc1ccc(Cc2ccncc2)cc1)c1ccc([N+](=O)[O-])o1,> 26 µM (inactive)
22,CCOc1ccc(C(Nc2cccnc2)c2cc(Cl)c3cccnc3c2O)cc1 (stereo not drawn),> 26 µM (inactive)
23,S=C(NCCCN1CCOCC1)N1CCN(c2nc(-c3ccc(Cl)cc3)cs2)CC1,> 12 µM (inactive)

row,SMILES,AC50
1,COc1cccc(/C=N/NC(=O)C(=O)Nc2ccccc2OC(F)(F)C(F)F)c1O,> 26 µM (inactive)
2,O=C(Nc1ccc(S(=O)(=O)N2CCOCC2)cc1)c1ccc([N+](=O)[O-])s1,> 26 µM (inactive)
3,CCCCCCCCCCOC(=O)Cn1c(COc2ccc(OC)cc2)[n+](C)c2ccccc21,> 26 µM (inactive)
4,Cc1ccc2nc(N(CCCN(C)C)C(=O)c3ccc(S(=O)(=O)N4CCc5ccccc5C4)cc3)sc2c1,> 26 µM (inactive)
5,O=C(NC1=C(Nc2ccc(Cl)cc2)C(=O)c2ccccc2C1=O)c1ccccc1,> 26 µM (inactive)
6,CC(C)COC(=O)c1ccc2c(c1O)C(=O)c1ccccc1C2=O,> 26 µM (inactive)
7,COc1cc(CC(=O)Nc2nc(-c3ccc(F)c(F)c3)cs2)cc(OC)c1OC,> 26 µM (inactive)
8,COc1ccccc1N1CCN(Cc2cc(Br)c(O)c3ncccc23)CC1,> 12 µM (inactive)
9,CCc1ccc(NC(=O)CSc2ccc(-c3ccccn3)nn2)cc1,> 26 µM (inactive)
10,CC1CCN(Cc2c(C(=O)N/N=C/c3ccccc3O)nnn2-c2nonc2N)CC1,> 26 µM (inactive)
11,CCOc1ccc(Nc2cc(C)nc(-n3nc(C)cc3C)n2)cc1,> 26 µM (inactive)
12,CCCCCCCCn1ccc(=N)cc1,> 26 µM (inactive)
13,CCN1C/C(=C/c2ccc(OC)c(O)c2)C(=O)/C(=C/c2ccc(OC)c(O)c2)C1,> 26 µM (inactive)
14,NNc1nc(-c2ccccc2)cc(-c2ccccc2O)n1,> 26 µM (inactive)
15,COC(=O)c1sccc1S(=O)(=O)Nc1ccc(N2CCCCC2)cc1,> 26 µM (inactive)
16,COc1ccc(O)c(/C=N/Nc2nc(Nc3ccccc3)nc(-n3nc(C)cc3C)n2)c1,> 26 µM (inactive)
17,CC(=O)NC(c1cccc([N+](=O)[O-])c1)c1ccc2cccnc2c1O (stereo not drawn),> 26 µM (inactive)
18,Cc1cc(OCC(=O)N(C)Cc2ccccc2)ccc1Cl,> 26 µM (inactive)
19,Cc1cc2nc(-c3ccc(NC(=O)c4cccnc4)cc3)oc2cc1C,> 26 µM (inactive)
20,CC1Sc2ccc(S(=O)(=O)N3CCC(C(=O)Nc4ccc(Cl)cc4)CC3)cc2NC1=O (stereo not drawn),> 26 µM (inactive)
21,O=C(c1ccc2c(c1)[nH]c(=S)n1c3ccccc3nc21)N1CCN(c2cccc(Cl)c2)CC1,> 26 µM (inactive)
22,COc1ccc(CCNc2ncnc3sccc23)cc1OC,> 26 µM (inactive)
